Test results from paper PMC11596557, “Exiguolysin, a Novel Thermolysin (M4) Peptidase from Exiguobacterium oxidotolerans” (Microorganisms, 2024).
*: point of attachment. Mca = COc1ccc2c(CC(=O)*)cc(=O)oc2c1

Test system: exiguolysin
Assay: Km determination of the fluorogenic substrate (Michaelis-Menten)
Format: biochemical, Exiguobacterium oxidotolerans
Settings: 25 mM Tris, 2.5 mM CaCl2, pH 7.0; substrate 0-200 µM; exiguolysin 5 units/well
Protocol: The inhibition of protease activity was screened using a 20 × 20 library of N-alpha dipeptide mercaptoamide inhibitors as previously described by Cathcart et al., and the half-maximal inhibitory constant (Ki) values were determined. In order to determine Michaelis–Menten constant, Km, of the fluorogenic substrate, exiguolysin (previously purified by HIC, final concentration 5 units/well) was added to wells of a 96-well black microtitre plate (Nunc); the volume was adjusted to 75 µL in assay buffer (25 mM Tris, 2.5 mM CaCl2, pH 7.0), and fluorogenic substrate (25 µL) was added at concentrations of 0, 1, 10, 25, 50, 100 and 200 µM. Time-dependent hydrolysis of the fluorogenic substrate was measured (excitation/emission […] nm) every 30 s for 30 min. The Km is determined using the Michealis–Menten equation, by plotting the rate of substrate hydrolysis against substrate concentration.

With “Mca-Lys-Pro-Leu-Gly-Leu-Dap-(Dnp)-Ala-Arg-NH2 (Mca-KPLGL-{Dap(Dnp)-Ala-Arg-NH2}) [fluorogenic substrate, fluorogenic matrix metalloprotease (MMP) substrate]” the Km was 14.2 µM.
